What was measured:
[1] = test system: HIV-1 transcription in 24STNLSG cells; assay: SEAP assay in 24STNLSG cells (latency reactivation); format: cell-based; conditions: for EC2X, 24STNLSG: concentration for 2-fold increase in SEAP activity; for Activity in 24STNLSG cells (in words): structure-activity
Protocol: SupT1-derived 24STNLSG cells were plated at 100,000 cells/well in black bottom/black walled 96-well plates in 50 μl RPMI-1640 medium (without phenol red) containing 10% FBS. Compound was added in 50 μl of identical medium using three-fold dose-response dilutions, in duplicate. […] TNF-α, a nuclear factor-κB (NF-κB) activator known to induce HIV- expression in cellular models, was used as a positive control. Plates were incubated for 72 h at 37°C, 5% CO2. Plates were then sealed and heated to 65°C for 30 min. Plates were brought to room temperature and 50 μl assay buffer (1 mM MgCl2, 10 mM L-homoarginine, 1 M diethylamine hydrochloride) was added to each well and incubated for 5 min at room temperature. To each well, 50 μl of CSPD Substrate (0.4 mM Ready-to-Use with Sapphire-II Enhancer; Applied Biosystems, Foster City, CA) was added. Plates were incubated for 20 min at room temperature and read on a ViewLux microplate imager (Perkin Elmer, Waltham, MA). Curves were fit by non-linear regression using Prism software (GraphPad, San Diego, CA).

[2] = Cytotoxicity assay in SupT1 cells (ATP, CellTiter-Glo); format: cell-based; conditions: human, SupT1 cells; ATP quantification; 72 h; read-out: CC50, SupT1
Protocol: SupT1 cells were plated at 100,000 per well in 96-well, white-walled plates with serial dilutions of test compound in a total volume of 100 μl RPMI-1640 medium containing 10% FBS and 0.5% DMSO. PBMCs were plated similarly at 50,000 cells/well and stimulated by addition of 40 μg/ml PHA and 80 ng/ml interleukin-2 (IL-2). Cells were incubated for 72 h at 37°C, 5% CO2. ATP was quantified using the CellTiter-Glo Luminescent Cell Viability Assay (Promega, Madison, WI) on a ViewLux microplate imager (Perkin Elmer, Waltham, MA). Percent cytotoxicity was determined relative to vehicle-only treated wells.

[3] = test system: HIV-1 Gag (p24) in ACH-2 cells; assay: Intracellular staining for HIV Gag in ACH-2 cells (flow cytometry); format: cell-based; conditions: 16 h, 30 μM Cmpd 1 or Cmpd 2, 10 μM SAHA, 1 mM JQ1 or 10 ng/ml PMA, single experiment (Fig 4A)
Protocol: ACH-2 cells were treated as indicated and HIV-1 expression was monitored by intracellular staining for p24. Approximately, 1 × 10^6 cells were collected and washed in PBS before fixing by resuspending in 100 μl of BD Cytofix/Cytoperm (BD Biosciences, San Jose, CA) at 4°C for at least 20 min. Cells were then harvested by centrifugation and resuspended in 100 μl BD PermWash (50 mM NH4Cl, 5 mM EDTA, 0.1% saponin, 0.5% BSA, PBS and 1 mg/ml of anti-HIV-Gag PE (Clone KC57, Beckman Coulter, Brea CA). Cells were stained for 30 min, washed with the PermWash, and resuspended in FACS buffer (2 mM EDTA, 0.5% BSA, 1% paraformaldehyde in PBS). Cells were analyzed by flow cytometry using a FACSCalibur instrument (BD Biosciences). Flow cytometry was performed at the Boston University School of Medicine flow cytometry core.
Fig 4 Induction of HIV-1 expressing cells following treatment with latency reversing agents. ACH-2 cells were not treated or treated with a final concentration of 30 μM Cmpd 1 or Cmpd 2, 10 μM SAHA, 1 mM JQ1 or 10 ng/ml PMA for 16 h. Cells were stained using anti-HIV-Gag-PE and analyzed by flow cytometry. Numbers within the profiles represent the percentage of positive cells. These profiles are from a single experiment. B) Data from four independent experiments. Y-axis is mean of % p24 positive cells. * Cmpd 1 p-value […] compared to other treatments using a two-tailed t-test. TEXT PRINTED IN THE PICTURE: (A) Cmpd 1: Intracellular Gag: 65.6% | (A) Cmpd 2: Intracellular Gag: 33.9% | (A) SAHA: Intracellular Gag: 23.0% | (A) JQ1: Intracellular Gag: 16.7% | (A) PMA: Intracellular Gag: 94.2%

[4] = Protein binding, mouse plasma (ultrafiltration); format: in vitro ADME; conditions: pH 7.4
Protocol: Binding of test compound to plasma proteins was estimated by incubation of test compounds with mouse or human plasma. Human plasma was obtained from BioreclamationIVT (Westbury, NY). […] After a 15 min incubation at 37°C, triplicate aliquots of the incubation mixtures were transferred to a Millipore Multiscreen Ultracel-10 filter plate (10 kDa molecular mass cut off, EMD Millipore, Billerica, MA). The plate was centrifuged for 60 min at 3000 × g and 37°C. After centrifugation, aliquots of both the ultrafiltrates as well as the incubation mixtures prior to ultrafiltration were analyzed by LC-MS/MS to quantify the concentrations of test compound and reference compounds.

[5] = Microsome assay, human liver microsomes; format: in vitro ADME
Protocol: (§1) Human and mouse liver microsomes were obtained from XenoTech, LLC (Kansas City, KS). The reaction mixture was composed of liver microsomes (0.5 mg/mL), 20 mM Tris-HCl pH 7.4, 2.5 mM MgCl2, and an NADPH generating system (0.1 mM NADP, 1.2 mM glucose-6-phosphate and 0.3 units/ml glucose-6-phophate dehydrogenase). […] Test compounds were added to the microsome reaction and loss of parent molecule was monitored after 1 h by LC/MS/MS.

[6] = Microsome assay, mouse liver microsomes; format: in vitro ADME
Protocol: as §1

[7] = test system: NF-κB response element reporter in Jurkat cells; assay: NF-κB-responsive Fluc reporter in Jurkat cells; format: cell-based, human; conditions: stably-transfected Jurkat cells, 4 h
Source text: The vector pGL4.32[luc2P/NF-κB-RE/Hygro] was purchased from Promega (Madison, WI), encoding 5 copies of a NF-κB response element driving expression of synthetic firefly luciferase gene, luc2, including a PEST destabilization sequence. Jurkat cells were transfected with this vector using a Gene Pulser® II (Biorad, Hercules, CA) with a 0.4 cm gap cuvette at 0.2 kV and 960 μF. Cells were allowed to recover for three days in RPMI-1640 with 10% FBS and 1% penicillin/streptomycin before selection with 200 μg/ml Hygromycin B for one month. Pooled, stably-transfected cells were plated at 50,000/well in 96-well plates and treated with test compounds in a final concentration of 0.5% DMSO for 4 h at 37°C. Luciferase activity was determined by adding one volume 2× steadylite plus reagent (Perkin Elmer, Waltham, MA) and reading on a ViewLux microplate imager.

[8] = test system: HIV-1 LTR; assay: HIV LTR-driven Rluc reporter in HeLa cells; format: cell-based; conditions: transfected HeLa cells, 24 h
Source text: The vector pGL4.77[hRlucP/Hygro] encoding a Renilla luciferase gene including a PEST destabilization sequence, was purchased from Promega (Madison, WI). HIV-1 cDNA was generated from HIVIIIB virus using PureLink® Viral RNA/DNA Mini Kit (Invitrogen). The HIV-1 core promoter region (nucleotides -105 to 60) was amplified from HIVIIIB cDNA using primers designed with NheI (forward: 5ʹ-GCTAGCGGGACTTTCCGCTGGG-3ʹ) and XhoI (reverse: 5ʹ-CTCGAGAGTGGGTTCCCTAGTTAGCCA-3ʹ) flanking restriction site sequences. DNA fragments were generated using Platinum® Taq DNA Polymerase High Fidelity (Invitrogen) and fragment size was verified by electrophoresis using E-Gel® 1.2% agarose (Invitrogen). Fragments were cloned into pCR™2.1 TOPO® (Invitrogen), transformed into One Shot® TOP10 Chemically Competent E. coli (Invitrogen), and selected on LB-agar plates containing 100 μg/ml ampicillin. Individual colonies were grown in LB broth, DNA was isolated using QIAprep® Spin Miniprep Kit (Qiagen), and the inserted fragment was verified by EcoRI digestion followed by electrophoresis using E-Gel® 1.2% agarose (Invitrogen). To insert the HIV-1 LTR into the vector multiple cloning region, the resultant plasmids and pGL4.77[hRlucP/Hygro] were dually digested with NheI and XhoI (New England Biolabs), ligated using ExpressLink™ T4 DNA Ligase (Invitrogen), transformed into One Shot® TOP10 Chemically Competent E. coli (Invitrogen), and selected on LB-agar plates containing 100 μg/ml ampicillin. Clones were picked and DNA isolated using QIAprep® Spin Miniprep Kit (Qiagen) and the inserted fragment was verified by NheI/XhoI digestion followed by electrophoresis using E-Gel® 1.2% agarose (Invitrogen). The resultant plasmid, pGL4.77-LTR, was verified by sequencing at GENEWIZ (South Plainfield, NJ). […] Luciferase activity was quantified using Renilla Luciferase Assay System (Promega, Madison, WI) and results were normalized to the vehicle-treated control.

[9] = test system: IL-2 secretion by PBMCs; assay: IL-2 ELISA in PBMCs; format: cell-based, human; conditions: 24 h
Protocol: Cryopreserved PBMCs from a single donor were thawed in RPMI-1640 plus 10% FBS. PBMCs were plated at 5×10^4/well in 96-well plates and compound was added with a final concentration of 0.5% DMSO. Plates were incubated for 24 h at 37°C, 5% CO2. Interleukin-2 was quantified using Human IL-2 DuoSet ELISA (R&D Systems, Minneapolis, MN). Raw data were converted to ng/ml IL-2 using a standard curve obtained in parallel.

[10] = test system: Epstein-Barr virus (EBV) in Raji cells; assay: EBV activation assay in Raji cells (BZLF1 qRT-PCR); format: cell-based; conditions: Raji cells, 24 h, concentrations as low as 0.014 ng/ml
[11] = test system: Kaposi's sarcoma associated herpesvirus (KSHV) in BCP-1 cells; assay: KSHV activation assay in BCP-1 cells (ORF50 qRT-PCR); format: cell-based; conditions: 24 h, concentrations as low as 0.014 ng/ml
[12] = Protein binding, human plasma (ultrafiltration); format: in vitro ADME; conditions: human plasma, 10 μM, pH 7.4

Question: For Cn1c(-c2ccc(-c3nc4cc(N)ccc4o3)cc2)nc2cc(N)ccc21 [Compound 4], which “EC2X, 24STNLSG” value ([1]; 72 h) is on record?
Answer: The value was greater than 100 µM.

Question: What about the “Activity in 24STNLSG cells (in words)” value [1] of the same molecule?
Answer: The value was “complete loss of activity”.

Question: What about the CC50 at 72 h [2] of the same molecule?
Answer: The CC50 at 72 h was greater than 100 µM.

Question: With Cc1sc2c(c1C)C(c1ccc(Cl)cc1)=N[C@@H](CC(=O)OC(C)(C)C)c1nnc(C)n1-2 [JQ1, reference compound] as the molecule, how does the “Intracellular Gag, percentage of positive cells” value [3] read?
Answer: The value was 16.7%.

Question: With CC(=O)CC(c1ccccc1)c1c(O)c2ccccc2oc1=O (racemic) [Warfarin, (RS)-warfarin, reference compound] as the molecule, how does the fraction unbound at 15 min, 10 μM ([4]; mouse, plasma) read?
Answer: Its fraction unbound at 15 min, 10 μM is 0.047.

Question: For O=C(CCCCCCC(=O)Nc1ccccc1)NO [SAHA, Suberanilohydroxamic acid, reference compound], which “Intracellular Gag, percentage of positive cells” value [3] is on record?
Answer: The value was 23.0%.

Question: Which results are given for CC(C)N(CCC(C(N)=O)(c1ccccc1)c1ccccn1)C(C)C (stereo not shown) [Disopyramide, reference compound]?
Answer: HLM stability (% loss of parent compound at 1 h) [5]: 9%; MLM stability (% loss of parent compound at 1 h) [6]: 12%

Question: With TNF-α as the molecule, how does the “Induction of NF-κB driven reporter (in words)” value [7] read?
Answer: The value was “strongly induced this reporter”.

Question: What about the “Transcription driven by the HIV-1 LTR (in words)” value [8] of the same molecule?
Answer: Its value is “significantly increased expression of this reporter”.

Question: Which results are given for Nc1ccc2oc(-c3ccc(-c4nc5cc(N)ccc5o4)cc3)nc2c1 [Compound 5]?
Answer: EC2X, 24STNLSG ([1]; 72 h): >100 µM; Activity in 24STNLSG cells (in words) [1]: inactive; CC50 at 72 h [2]: > 100 µM

Question: Which results are given for CCCCCCCCCCCCCC(=O)O[C@@H]1[C@@H](C)[C@@]2(O)[C@@H](C=C(CO)C[C@]3(O)C(=O)C(C)=C[C@@H]23)[C@@H]2C(C)(C)[C@]12OC(C)=O [PMA, phorbol 12-myristate 13-acetate, reference compound]?
Answer: IL-2 secretion by PBMCs (in words) [9]: induced high levels of IL-2; Stimulation of BLZF1 mRNA (EBV) [10]: > 35 fold; Intracellular Gag, percentage of positive cells [3]: 94.2%; Stimulation of ORF50 mRNA (KSHV) [11]: > 35 fold

Question: For Nc1ccc2[nH]c(-c3ccc(-c4nc5cc(N)ccc5[nH]4)cc3)nc2c1 [Compound 6], which “EC2X, 24STNLSG” value ([1]; 72 h) is on record?
Answer: Its value is greater than 100 µM.

Question: What about the “Activity in 24STNLSG cells (in words)” value [1] of the same molecule?
Answer: The value was “inactive”.

Question: What about the CC50 at 72 h [2] of the same molecule?
Answer: The CC50 at 72 h was greater than 100 µM.

Question: Which results are given for CC(C)NCC(O)COc1cccc2ccccc12 (stereo not shown) [Propanolol, propranolol, reference compound]?
Answer: % Plasma protein binding (mouse) ([4]; mouse plasma, 10 μM): 73.8%; % Plasma protein binding (human) [12]: 74.3%

Question: Which results are given for Nc1ccc2[nH]c(-c3ccc(-c4nc5c(N)cccc5o4)cc3)nc2c1 [Compound 3]?
Answer: Max. fold induction, 24STNLSG ([1]; SEAP reporter, 72 h): 3 fold; EC2X, 24STNLSG ([1]; 72 h): 3.7 µM; CC50 at 72 h [2]: 8.8 µM
